The text below walks through data of ChEMBL document CHEMBL1921773, “Carbamates of 4'-demethyl-4-deoxypodophyllotoxin: synthesis, cytotoxicity and cell cycle effects” (Bioorg Med Chem Lett, 2011).

The structures appear in SMILES notation.

Series [1] concerns A549. Nature of the series: Cytotoxicity against human A549 cells assessed as growth inhibition after 48 hrs by MTT assay. It counts as functional, cell-based. As to conditions: A549, 48 h.
A further series deals with SiHa. Nature of the series: Cytotoxicity against human SiHa cells assessed as growth inhibition after 48 hrs by MTT assay. It counts as functional, cell-based.
A further series relates to HeLa. Nature of the series: Cytotoxicity against human HeLa cells assessed as growth inhibition after 48 hrs by CCK-8 assay. The format is functional, cell-based.
In another series the test system is HL-60. Nature of the series: Cytotoxicity against human HL60 cells assessed as growth inhibition after 48 hrs by CCK-8 assay. The format is functional, cell-based. As to conditions: HL-60, 48 h.
Series [2] in a line: Octanol-water partition coefficient, log P of the compound. It counts as physicochemical.
Series [3] has as its system A549. Nature of the series: Cell cycle arrest in human A549 cells assessed as accumulation of cells at G1 phase at 0.4 uM after 12 hrs by propidium iodide staining-based flow cytometry (reference value: 59.9%). The format is functional.
The subject of series [4] is A549. Nature of the series: Cell cycle arrest in human A549 cells assessed as accumulation of cells at S phase at 0.4 uM after 12 hrs by propidium iodide staining-based flow cytometry (reference value: 36.7%). It counts as functional.
Series [5] deals with A549. Nature of the series: Cell cycle arrest in human A549 cells assessed as accumulation of cells at G2/M phase at 0.4 uM after 12 hrs by propidium iodide staining-based flow cytometry (reference value: 3.2%). It counts as functional.
Series [6] has as its system A549. Nature of the series: Cell cycle arrest in human A549 cells assessed as accumulation of cells at G1 phase at 0.4 uM after 24 hrs by propidium iodide staining-based flow cytometry (reference value: 59.9%). The format is functional.
Series [7] has as its system A549. Nature of the series: Cell cycle arrest in human A549 cells assessed as accumulation of cells at S phase at 0.4 uM after 24 hrs by propidium iodide staining-based flow cytometry (reference value: 36.7%). The format is functional.
In series [8] the test system is A549. Nature of the series: Cell cycle arrest in human A549 cells assessed as accumulation of cells at G2/M phase at 0.4 uM after 24 hrs by propidium iodide staining-based flow cytometry (reference value: 3.2%). It counts as functional.
The subject of series [9] is A549. Nature of the series: Cell cycle arrest in human A549 cells assessed as accumulation of cells at G2/M phase at 0.4 uM by propidium iodide staining-based flow cytometry (reference value: 3.2%). It counts as functional. As to conditions: TDE = time-dependent effect.

For `CC[C@H](C)[C@H](NC(=O)Oc1c(OC)cc([C@@H]2c3cc4c(cc3C[C@H]3COC(=O)[C@@H]32)OCO4)cc1OC)C(N)=O`, the IC50 with A549 [1] is 1770 nM; with SiHa, 3700 nM; with HeLa, 5280 nM; in the series with HL-60, 1020 nM. In [2], this molecule yielded a log partition coefficient (logP) of 1.36.
The like results for `COc1cc([C@@H]2c3cc4c(cc3C[C@H]3COC(=O)[C@@H]32)OCO4)cc(OC)c1OC(=O)N[C@H](Cc1ccccc1)C(N)=O` were, in that order, 1610 nM, 416 nM, 575 nM, 231 nM and 1.33.
In the same order, the values of `COc1cc([C@@H]2c3cc4c(cc3C[C@H]3COC(=O)[C@@H]32)OCO4)cc(OC)c1OC(=O)N[C@@H](CC(C)C)C(N)=O` are 9930 nM, 877 nM, 703 nM, 670 nM and 1.26.
Take `COc1cc([C@@H]2c3cc4c(cc3C[C@H]3COC(=O)[C@@H]32)OCO4)cc(OC)c1OC(=O)N[C@@H](Cc1ccccc1)C(=O)NC1CC1`: the IC50 in the series on A549 [1] is 3370 nM; with SiHa it was 1120 nM; with HeLa it was 693 nM; in the series with HL-60 it was 416 nM. In series [2], this molecule gave a lipophilicity (logP) of 1.95.
For `COc1cc([C@@H]2c3cc4c(cc3C[C@H]3COC(=O)[C@@H]32)OCO4)cc(OC)c1OC(=O)N[C@H](C(=O)NC1CCCC1)C(C)C`, the 50% inhibitory concentration (IC50) in the series with A549 [1] amounted to 1910 nM; in the series with SiHa, 14600 nM; in the series on HeLa it was 20300 nM; in the series on HL-60, 1030 nM. In addition, the log partition coefficient (logP) in [2] was 2.57.
`COc1cc([C@@H]2c3cc4c(cc3C[C@H]3COC(=O)[C@@H]32)OCO4)cc(OC)c1OC(=O)N[C@H](C(=O)NC1CC1)C(C)C`: the IC50 came to 2310 nM in the series with A549 [1], 432 nM in the series on SiHa, 433 nM in the series with HeLa and 213 nM in the series on HL-60. This molecule returned a log partition coefficient (logP) in series [2] of 1.45.
As for `COc1cc([C@@H]2c3cc4c(cc3C[C@H]3COC(=O)[C@@H]32)OCO4)cc(OC)c1OC(=O)N[C@H](C(N)=O)C(C)C`, the IC50 is 1490 nM with A549 [1], 2890 nM in the series with SiHa, 3830 nM in the series with HeLa and 1030 nM with HL-60. In addition, the lipophilicity (logP) in series [2] stood at 0.84.
The like results for `COc1cc([C@@H]2c3cc4c(cc3C[C@H]3COC(=O)[C@@H]32)OCO4)cc(OC)c1O` [4'-DEMETHYLDEOXYPODOPHYLLOTOXIN] were, in that order, 1800 nM, 53300 nM, 43000 nM, 2960 nM and 2.92.
The like results for `COc1cc([C@@H]2c3cc4c(cc3[C@@H](O[C@@H]3O[C@@H]5CO[C@@H](C)O[C@H]5[C@H](O)[C@H]3O)[C@H]3COC(=O)[C@H]23)OCO4)cc(OC)c1O` [ETOPOSIDE] were, in that order, 24900 nM, 40400 nM, 2760 nM, 2850 nM and 0.69.
The like results for `COc1cc([C@@H]2c3cc4c(cc3C[C@H]3COC(=O)[C@@H]32)OCO4)cc(OC)c1OC(=O)N[C@@H](Cc1ccccc1)C(=O)NC1CCCC1` were, in that order, 2690 nM, 6870 nM, 3070 nM, 988 nM and 2.06.
As to `COc1cc([C@@H]2c3cc4c(cc3C[C@H]3COC(=O)[C@@H]32)OCO4)cc(OC)c1OC(=O)N[C@@H](C)C(N)=O`, the IC50 came out at 4230 nM in the series with A549 [1], 696 nM with SiHa, 743 nM with HeLa and 397 nM in the series on HL-60. The logP in [2] was -0.09.
Take `COc1cc([C@@H]2c3cc4c(cc3C[C@H]3COC(=O)[C@@H]32)OCO4)cc(OC)c1OC(=O)N[C@@H](CCSC)C(N)=O`: the IC50 in the series on A549 [1] is 860 nM; in the series with SiHa it was 4320 nM; in the series with HeLa, 2030 nM; in the series on HL-60 it was 711 nM. In addition, the lipophilicity (logP) in series [2] was 0.28.
As for `COc1cc([C@@H]2c3cc4c(cc3C[C@H]3COC(=O)[C@@H]32)OCO4)cc(OC)c1OC(=O)N[C@@H](Cc1ccccc1)C(N)=O`, the half-maximal inhibitory concentration (IC50) in the series with A549 [1] came to 3410 nM; in the series with SiHa it was 1070 nM; with HeLa it was 1720 nM; in the series with HL-60 it was 940 nM. The log partition coefficient (logP) in series [2] is 1.35.
For the molecule `COc1cc([C@@H]2c3cc4c(cc3C[C@H]3COC(=O)[C@@H]32)OCO4)cc(OC)c1OC(=O)N[C@H](CCSC)C(N)=O`, the 50% inhibitory concentration (IC50) came out at 887 nM in the series on A549 [1], 614 nM in the series with SiHa, 528 nM with HeLa and 89.3 nM in the series on HL-60. Besides, the logP in series [2] is 0.26. Further, the Activity in the series with A549 [3] stood at 22.6%; in the series on A549 [4], 49.7%; in the series on A549 [5] it was 27.7%; in the series on A549 [6] it was 11.2%; in the series with A549 [7], 30.7%; in the series with A549 [8], 58.1%. In addition, the Activity result in the series with A549 [9] is “tde”.
With `COc1cc([C@@H]2c3cc4c(cc3C[C@H]3COC(=O)[C@@H]32)OCO4)cc(OC)c1OC` [DESOXYPODOPHYLLOTOXIN], the half-inhibitory concentration (IC50) in the series with A549 [1] came to 1380 nM; in the series on SiHa, 6010 nM; in the series with HeLa it was 1980 nM; in the series on HL-60 it was 470 nM. Moreover, the log partition coefficient (logP) in [2] came out at 3.16.
